Experimental data: patent US20080194630A1, “LTA4H modulators and uses thereof” (priority 2007, published 2008)
Each block holds one compound with its values, some of them ahead of it.

Columns and labels:
[1] = test system: ex vivo stimulated LTB4 production; assay: Murine arachidonic acid-induced inflammation model: ex vivo stimulated LTB4 production in blood; design: species or system female Balb/c mice; conditions: 30 mg/kg oral gavage, blood taken 3 h after arachidonic acid, ex vivo A23187 stimulation, vs animals without inhibitor
Protocol: Murine arachidonic acid-induced inflammation model
LTA4H inhibitor compounds of the present invention were dissolved in 20% cyclodextran/H2O at a concentration of 3 mg/mL. The solutions were administered by oral gavage to female Balb/c mice weighing approximately 20 grams each (0.2 mL per mouse, 30 mg of LTA4H inhibitor compound per kg). Sixty minutes after being administered an LTA4 inhibitor, each mouse received topical application of 20 μL of arachidonic acid (100 mg/mL in acetone) to the left ear and 20 μL of acetone only to the right ear. After 3 h, the mice were sacrificed, blood was withdrawn in heparinized syringes, and 8 mm ear biopsies were taken. […]
One hundred-microliter aliquots of heparinized blood were added to wells of a microtiter plate, along with equal volumes of RPMI-1640 medium, and calcium ionophore A23187 was added to each sample well (final concentration=20 ng/μL). […] Supernatants were analyzed for LTB4 by a commercially available enzyme-linked immunoassay (Cayman Chemical Co.) in accordance with the manufacturer's instructions. The percent inhibition of ex vivo stimulated LTB4 production (% Inh. LTB4) was determined by comparison to animals treated identically except that the solution admininstered by oral gavage was devoid of inhibitor compound.

[2] = test system: ionophore-induced LTB4 production; conditions: oral administration; cited from earlier work
[3] = test system: ionophore-induced LTB4 production; conditions: oral administration; cited from earlier work; remark: listed apart in the source
[4] = test system: neutrophil influx (myeloperoxidase, MPO); assay: Murine arachidonic acid-induced inflammation model: neutrophil influx in ear (myeloperoxidase activity); format: in vivo, female Balb/c mice; conditions: Mus musculus, 30 mg/kg oral gavage 60 min before topical arachidonic acid, ear biopsy after 3 h, vs animals without inhibitor
Protocol: Murine arachidonic acid-induced inflammation model LTA4H inhibitor compounds of the present invention were dissolved in 20% cyclodextran/H2O at a concentration of 3 mg/mL. The solutions were administered by oral gavage to female Balb/c mice weighing approximately 20 grams each (0.2 mL per mouse, 30 mg of LTA4H inhibitor compound per kg). Sixty minutes after being administered an LTA4 inhibitor, each mouse received topical application of 20 μL of arachidonic acid (100 mg/mL in acetone) to the left ear and 20 μL of acetone only to the right ear. After 3 h, the mice were sacrificed, blood was withdrawn in heparinized syringes, and 8 mm ear biopsies were taken. Ear biopsies were weighed to determine edema and then frozen at -80° C. until needed for determination of neutrophil influx. Neutrophil influx was quantified by measuring the activity of myeloperoxidase (MPO), a neutrophil-specific enzyme. […] Debris was removed by centrifugation at 14000×g for 10 min. […] The microtiter plate contents were held at room temperature for 1 h. […] H2SO4 to each sample well, and the myeloperoxidase activity in each sample was determined from the absorbance at 405 nm. […] The percent inhibition of neutrophil influx (% Inh. MPO) by compounds of the invention was determined by comparison to animals treated identically, except that the solution administered by oral gavage was devoid of inhibitor compound.

[5] = test system: LTB4 production in murine whole blood (LTA4H); assay: LTB4 production by calcium ionophore-stimulated murine blood for LTA4H inhibitor activity; format: cell-based, CD-1 mice; conditions: CD-1 mouse blood diluted 1:15, calcium ionophore A23187 20 ng/mL, LTB4 by enzyme-linked immunoassay
atopic dermatitis = conditions: small open-label trial in AD; cited from earlier work
pruritus = conditions: human, in vivo; cited from earlier work

SMILES: O=C(O)C1CCN(Cc2ccc(Oc3nc4ccccc4s3)cc2)CC1 [Example 250, 1-[4-(Benzothiazol-2-yloxy)-benzyl]-piperidine-4-carboxylic acid]
- % Inh. LTB4 [1]: 80%

SMILES: CN(CCCOc1ccc(Cc2ccccc2)cc1)CCC(=O)O.Cl [SC57461]
- ionophore-induced LTB4 production in mouse blood ex vivo [2]: caused inhibition
- ionophore-induced LTB4 production in rat peritoneum in vivo [3]: caused inhibition

- IC50 [5]: 15 nM
SMILES: CC(C)N(CCC(=O)O)CCc1ccc(Oc2nc3ccccc3s2)cc1 [Example 180, 3-({2-[4-(Benzothiazol-2-yloxy)-phenyl]-ethyl}-isopropyl-amino)-propionic acid]
- inhibition at 30 mg/kg [4]: 87%
- inhibition at 30 mg/kg ([1]; Mus musculus, read-out: % Inh. LTB4): 87%

SMILES: CC(c1cc2ccccc2s1)N(O)C(N)=O (centres unmarked) [zileuton]
- effects in atopic dermatitis (atopic dermatitis): beneficial effects
- pruritus in Sjögren-Larsson syndrome patients (pruritus): relieving the pruritus
